Laboratory results published in patent US20120165310A1, “ETHER DERIVATIVES OF BICYCLIC HETEROARYLS” (NOVARTIS AG, priority 2009, published 2012).

Target: T1, IGF-1R (Homo sapiens, UniProt P08069)
T1 construct: expressed in transfected cells; host or cells: Hek293 (Hek293-IGF1R)
Assay: Cellular IGF-1R assay: capture ELISA (MSD) of receptor phosphorylation in Hek293 cells
Assay type: cell-based
Conditions: Hek293-IGF1R cells, 1 h pre-incubation, 10 min IGF stimulation, pIGF1R capture ELISA
Method in brief: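 IC50 from 4-parameter fit of IGF1R phosphorylation, normalised to IGF-stimulated and unstimulated controls, measured by MSD capture ELISA on lysates. Hek293-IGF1R cells in starvation medium got compound 1 h (top 10 μM, 3-fold steps, 0.1% DMSO) before a 10 min pulse of 1.0 ng/μL IGF.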

T1 sequence (P08069 31-1367): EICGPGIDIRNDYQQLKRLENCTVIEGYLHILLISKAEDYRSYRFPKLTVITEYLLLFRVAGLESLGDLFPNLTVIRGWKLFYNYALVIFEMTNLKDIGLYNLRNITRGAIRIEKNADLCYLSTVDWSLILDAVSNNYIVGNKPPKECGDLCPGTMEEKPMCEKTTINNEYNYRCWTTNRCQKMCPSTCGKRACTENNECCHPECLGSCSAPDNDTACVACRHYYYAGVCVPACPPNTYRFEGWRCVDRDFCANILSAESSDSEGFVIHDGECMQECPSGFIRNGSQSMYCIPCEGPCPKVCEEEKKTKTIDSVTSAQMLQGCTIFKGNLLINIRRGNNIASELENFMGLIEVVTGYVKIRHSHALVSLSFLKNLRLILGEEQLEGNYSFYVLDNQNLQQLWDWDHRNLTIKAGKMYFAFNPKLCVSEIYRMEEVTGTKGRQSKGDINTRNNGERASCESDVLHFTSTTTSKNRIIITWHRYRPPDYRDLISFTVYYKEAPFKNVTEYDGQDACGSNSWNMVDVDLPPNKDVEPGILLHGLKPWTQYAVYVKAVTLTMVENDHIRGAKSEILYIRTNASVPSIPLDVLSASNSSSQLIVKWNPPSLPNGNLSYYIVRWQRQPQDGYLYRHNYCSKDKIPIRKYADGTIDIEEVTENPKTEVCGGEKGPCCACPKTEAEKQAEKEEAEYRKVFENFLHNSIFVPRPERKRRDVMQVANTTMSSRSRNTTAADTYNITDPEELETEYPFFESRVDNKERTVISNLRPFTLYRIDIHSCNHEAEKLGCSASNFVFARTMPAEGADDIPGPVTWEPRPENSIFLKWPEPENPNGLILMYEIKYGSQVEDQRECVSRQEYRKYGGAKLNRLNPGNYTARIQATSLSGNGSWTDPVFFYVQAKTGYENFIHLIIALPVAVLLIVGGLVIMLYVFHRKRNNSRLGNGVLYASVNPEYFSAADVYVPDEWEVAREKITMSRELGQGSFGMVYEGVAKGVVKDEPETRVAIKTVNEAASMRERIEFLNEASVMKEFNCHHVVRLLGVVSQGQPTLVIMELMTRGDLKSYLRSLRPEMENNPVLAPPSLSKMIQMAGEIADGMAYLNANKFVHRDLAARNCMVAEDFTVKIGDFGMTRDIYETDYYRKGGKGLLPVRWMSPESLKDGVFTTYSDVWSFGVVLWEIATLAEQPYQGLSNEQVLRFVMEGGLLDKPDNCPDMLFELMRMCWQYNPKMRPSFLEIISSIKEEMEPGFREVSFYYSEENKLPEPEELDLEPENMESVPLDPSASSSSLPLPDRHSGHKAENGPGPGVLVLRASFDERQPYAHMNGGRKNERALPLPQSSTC

Question: Which IC50 does the source give for `CC1(C)CCC(COc2cccc(-c3cn(C4CC(CN5CC(F)C5)C4)c4ncnc(N)c34)c2)O1` (stereo not drawn) [Example 47, 5-[trans-3-(5,5-dimethyl-tetrahydro-furan-2-ylmethoxy)-phenyl]-7-[3-(3-fluoro-azetidin-1-ylmethyl)-cyclobutyl]-7H-pyrrolo[2,3-d]pyrimidin-4-ylamine] here?
Answer: 34 nM

Question: Which IC50 does the source give for `CC1(C)CCC(COc2cccc(-c3cn([C@H]4C[C@@H](CN5CCC[C@H]5C(N)=O)C4)c4ncnc(N)c34)c2)O1` (stereo partly drawn) [Example 50, (S)-1-(cis-3-{4-amino-5-[3-(5,5-dimethyl-tetrahydro-furan-2-ylmethoxy)-phenyl]-pyrrolo[2,3-d]pyrimidin-7-yl}-cyclobutylmethyl)-pyrrolidine-2-carboxylic acid amide] here?
Answer: 8 nM

Question: For `CC1(C)CCC(COc2cccc(-c3cn([C@H]4C[C@@H](CN5CCC[C@@H]5C(N)=O)C4)c4ncnc(N)c34)c2)O1` (stereo partly drawn) [Example 51, (R)-1-(cis-3-{4-amino-5-[3-(5,5-dimethyl-tetrahydro-furan-2-ylmethoxy)-phenyl]-pyrrolo[2,3-d]pyrimidin-7-yl}-cyclobutylmethyl)-pyrrolidine-2-carboxylic acid amide], which IC50 is on record?
Answer: 53 nM

Question: How did the IC50 turn out when `NC(=O)[C@H]1[C@@H](O)CCN1C[C@H]1C[C@@H](n2cc(-c3cccc(OCC4CCCCO4)c3)c3c(N)ncnc32)C1` (stereo partly drawn) [Example 56, (2R,3S)-1-(cis-3-{4-amino-5-[3-(tetrahydro-pyran-2-ylmethoxy)-phenyl]-pyrrolo[2,3d]pyrimidin-7-yl}-cyclobutylmethyl)-3-hydroxy-pyrrolidine-2-carboxylic acid amide] was run?
Answer: 97 nM

Question: With `CC1(C)CCC(COc2cccc(-c3cn(C4CC(CN5CCC(O)C5)C4)c4ncnc(N)c34)c2)O1` [Example 57, (S)-1-(3-{4-amino-5-[3-(5,5-dimethyl-tetrahydro-furan-2-ylmethoxy)-phenyl]-5 pyrrolo[2,3-d]pyrimidin-7-yl}-cyclobutylmethyl)-pyrrolidin-3-ol] as the compound, how does the IC50 read?
Answer: 15 nM

Question: Which IC50 does the source give for `CC1(C)CCC(COc2cccc(-c3cn([C@H]4C[C@@H](CN5CC[C@@H](O)C5)C4)c4ncnc(N)c34)c2)O1` (stereo partly drawn) [Example 58, (R)-1-(cis-3-{4-amino-5-[3-(5,5-dimethyl-tetrahydro-furan-2-ylmethoxy)-phenyl]-pyrrolo[2,3-d]pyrimidin-7-yl}cyclobutylmethyl)-pyrrolidin-3-ol] here?
Answer: 50 nM

Question: How did the IC50 turn out when `CN1CCC(N2CCC(n3cc(-c4cccc(OCC5CCC(C)(C)O5)c4)c4c(N)ncnc43)CC2)CC1` (stereo not shown) [Example 60, 5-[3-(5,5-dimethyl-tetrahydro-furan-2-ylmethoxy)-phenyl]-7-(1′-methyl-[1,4′]bipiperidinyl-4-yl)-7H-pyrrolo[2,3-d]pyrimidin-4-ylamine] was run?
Answer: 339 nM

Question: How did the IC50 turn out when `CC1(C)CCC(COc2cccc(-c3cn([C@H]4C[C@@H](CN5CCNC(=O)C5)C4)c4ncnc(N)c34)c2)O1` (stereo partly drawn) [Example 61, 4-(cis-3-{4-amino-5-[3-(5,6-dimethyl-tetrahydro-furan-2-ylmethoxy)-phenyl]-pyrrolo[2,3-d]pyrimidin-7-yl}-cyclobutylmethyl)-piperazin-2-one] was run?
Answer: 212 nM

Question: `NC(=O)[C@@H]1CCCN1C[C@H]1C[C@@H](n2cc(-c3cccc(OCC45CCC(CC4)O5)c3)c3c(N)ncnc32)C1` [Example 68, (S)-1-(cis-3-(4-amino-5-[3-(7-oxa-bicyclo[2.2.1]hept-1-ylmethoxy)-phenyl]-pyrrolo[2,3-d]pyrimidin-7-yl)-cyclobutylmethyl)-pyrrolidine-2-carboxylic acid amide] was tested. Which IC50 did it give?
Answer: 12 nM

Question: Which IC50 does the source give for `CC1(C)CCC(COc2cccc(-c3cn(C4CCC(N5CCC[C@H]5C(N)=O)CC4)c4ncnc(N)c34)c2)O1` (stereo partly drawn) [Example 69, (S)-1-(4-{4-amino-5-[3-(5,5-dimethyl-tetrahydro-furan-2-ylmethoxy)-phenyl]-pyrrolo[2,3-d]pyrimidin-7-yl}-cyclohexyl)-pyrrolidine-2-carboxylic acid amide] here?
Answer: 388 nM

Question: Which IC50 does the source give for `CC1(C)CCC(COc2cccc(-c3cn([C@H]4C[C@H](CN5CCC[C@H]5C(N)=O)C4)c4ncnc(N)c34)c2)O1` (stereo partly drawn) [Example 71, (S)-1-(trans-3-{4-amino-5-[3-(5,5-dimethyl-tetrahydro-furan-2-ylmethoxy)-phenyl]-pyrrolo[2,3-d]pyrimidin-7-yl}-cyclobutylmethyl)-pyrrolidine-2-carboxylic acid amide] here?
Answer: < 4 nM

Question: `CC1(C)CCC(COc2cccc(-c3cn([C@H]4C[C@H](CN5CCC[C@@H]5C(N)=O)C4)c4ncnc(N)c34)c2)O1` (stereo partly drawn) [Example 72, (R)-1-(trans-3-{4-amino-5-[3-(5,5-dimethyl-tetrahydro-furan-2-ylmethoxy)-phenyl]pyrrolo[2,3-d]pyrimidin-7-yl}-cyclobutylmethyl)-pyrrolidine-2-carboxylic acid amide] was tested. Which IC50 did it give?
Answer: 57 nM

Question: For `NC(=O)[C@H]1CCCN1C[C@H]1C[C@@H](n2cc(-c3cccc(OCC45CCC(CC4)O5)c3)c3c(N)ncnc32)C1` [Example 75, (R)-1-(cis-3-{4-amino-5-[3-(7-oxa-bicyclo[2.2.1]hept-1-ylmethoxy)-phenyl]-pyrrolo[2,3-d]pyrimidin-7-yl}-cyclobutylmethyl)-pyrrolidine-2-carboxylic acid amide], which IC50 is on record?
Answer: 8 nM

Question: How did the IC50 turn out when `NC(=O)[C@@H]1CCCN1C[C@H]1C[C@@H](n2cc(-c3cccc(OCC4CCCO4)c3)c3c(N)ncnc32)C1` (stereo partly drawn) [Example 76, (S)-1-(cis-3-{4-amino-5-[3-(tetrahydro-furan-2-ylmethoxy)-phenyl]-pyrrolo[2,3-d]pyrimidin-7-yl}-cyclobutylmethyl)-pyrrolidine-2-carboxylic acid amide] was run?
Answer: 39 nM

Question: Which IC50 does the source give for `NC(=O)[C@@H]1CCCN1C[C@H]1C[C@H](n2cc(-c3cccc(OCC45CCC(CC4)O5)c3)c3c(N)ncnc32)C1` [Example 78, (S)-1-(trans-3-{4-amino-5-[3-(7-oxa-bicyclo[2.2.1]hept-1-ylmethoxy)-phenyl]-pyrrolo[2,3-d]pyrimidin-7-yl}cyclobutylmethyl)-pyrrolidine-2-carboxylic acid amide] here?
Answer: 5 nM

Question: For `NC(=O)[C@H]1CCCN1C[C@H]1C[C@H](n2cc(-c3cccc(OCC45CCC(CC4)O5)c3)c3c(N)ncnc32)C1` [Example 79, (R)-1-(trans-3-{4-amino-5-[3-(7-oxa-bicyclo[2.2.1]hept-1-ylmethoxy)-phenyl]-pyrrolo[2,3-d]pyrimidin-7-yl}cyclobutylmethyl)-pyrrolidine-2-carboxylic acid amide], which IC50 is on record?
Answer: 7 nM

Question: Which IC50 does the source give for `CC1(C)CCC(COc2cccc(-c3cn([C@H]4C[C@H](CN5CC[C@@H](O)[C@H]5C(N)=O)C4)c4ncnc(N)c34)c2)O1` (stereo partly drawn) [Example 80, (2S,3R)-1-(trans-3-(4-amino-5-[3-(5,5-dimethyl-tetrahydro-furan-2-ylmethoxy)-phenyl]-pyrrolo[2,3-d]pyrimidin-7-yl}-cyclobutylmethyl)-3-hydroxy-pyrrolidine-2-carboxylic acid amide] here?
Answer: 13 nM

Question: How did the IC50 turn out when `NC(=O)[C@H]1CCCN1C[C@H]1C[C@@H](n2cc(-c3cccc(OCC4CCCO4)c3)c3c(N)ncnc32)C1` (stereo partly drawn) [Example 81, (R)-1-(cis-3-{4-amino-5-[3-(tetrahydro-furan-2-ylmethoxy)-phenyl]-pyrrolo[2,3-d]pyrimidin-7-yl}-cyclobutylmethyl)-pyrrolidine-2-carboxylic acid amide] was run?
Answer: 157 nM

Question: How did the IC50 turn out when `NC(=O)[C@@H]1[C@H](O)CCN1C[C@H]1C[C@@H](n2cc(-c3cccc(OCC4CCCO4)c3)c3c(N)ncnc32)C1` (stereo partly drawn) [Example 82, (2S,3R)-1-(cis-3-{4-amino-5-[3-(tetrahydro-furan-2-ylmethoxy)-phenyl]-pyrrolo[2,3-d]pyrimidin-7-yl}-cyclobutylmethyl)-3-hydroxy-pyrrolidine-2-carboxylic acid amide] was run?
Answer: 205 nM

Question: For `NC(=O)[C@@H]1CCCN1C[C@H]1C[C@H](n2cc(-c3cccc(OCC4CCCO4)c3)c3c(N)ncnc32)C1` (stereo partly drawn) [Example 86, (S)-1-(trans-3-(4-amino-5-[3-(tetrahydro-furan-2-ylmethoxy)-phenyl]-pyrrolo[2,3-d]pyrimidin-7-yl}-cyclobutylmethyl)-pyrrolidine-2-carboxylic acid amide], which IC50 is on record?
Answer: 47 nM

Question: With `NC(=O)[C@H]1CCCN1C[C@H]1C[C@H](n2cc(-c3cccc(OCC4CCCO4)c3)c3c(N)ncnc32)C1` (stereo partly drawn) [Example 87, (R)-1-(trans-3-(4-amino-5-[3-(tetrahydro-furan-2-ylmethoxy)-phenyl]-pyrrolo[2,3-d]pyrimidin-7-yl}-cyclobutylmethyl)-pyrrolidine-2-carboxylic acid amide] as the compound, how does the IC50 read?
Answer: 116 nM

Question: For `Nc1ncnc2c1c(-c1cccc(OCC3CCCCO3)c1)cn2[C@H]1C[C@@H](CN2CCC[C@@H]2C(=O)O)C1` (stereo partly drawn) [Example 90, 1-(cis-3-{4-amino-5-[3-(tetrahydro-pyran-2-ylmethoxy)-pheny]-pyrrolo[2,3-d]pyrimidin-7-yl}-cyclobutylmethyl)-pyrrolidine-2-carboxylic acid], which IC50 is on record?
Answer: 538 nM

Question: For `CC1(C(N)=O)CCCN1CC1CC(n2cc(-c3cccc(OCC4CCCCO4)c3)c3c(N)ncnc32)C1` [Example 93, (2S)-1-(((1s,3R)-3-(4-amino-5-(3-((tetrahydro-2H-pyran-2-yl)methoxy)phenyl)-7H-pyrrolo[2,3-d]pyrimidin-7-yl)cyclobutyl)methyl)-2-methylpyrrolidine-2-carboxamide], which IC50 is on record?
Answer: 26 nM

Question: How did the IC50 turn out when `NC(=O)C1CC(F)CN1CC1CC(n2cc(-c3cccc(OCC4CCCCO4)c3)c3c(N)ncnc32)C1` [Example 94, (2S,4R)-1-(((1 S,3R)-3-(4-amino-5-(3-((tetrahydro-2H-pyran-2-yl)methoxy)phenyl)-7H-pyrrolo[2,3-d]pyrimidin-7-yl)cyclobutyl)methyl)-4-fluoropyrrolidine-2-carboxamide] was run?
Answer: 85 nM

Question: How did the IC50 turn out when `NC(=O)C1C2CCC(C2)N1CC1CC(n2cc(-c3cccc(OCC4CCCCO4)c3)c3c(N)ncnc32)C1` [Example 95, (1R,3R,45)-2-(((1s, 3S)-3-(4-amino-5-(3-((tetrahydro-2H-pyran-2-yl)methoxy)phenyl)-7H-pyrrolo[2,3-d]pyrimidin-7-yl)cyclobutyl)methyl)-2-azabicyclo[2.2.1]heptane-3-carboxamide] was run?
Answer: 219 nM
